Values quoted from earlier work, collected in patent US20240136011A1, “SYSTEM, METHOD, AND COMPUTER PROGRAM FOR PHYSICS-BASED BINDING AFFINITY ESTIMATION” (BOARD OF TRUSTEES OF THE UNIVERSITY OF ARKANSAS, priority 2022, published 2024).

Target: human fibroblast growth factor 1 (hFGF1) (Homo sapiens, UniProt P05230)
Details: MM-GBSA; recent computational studies

Chain of human fibroblast growth factor 1 (hFGF1) (P05230 whole entry): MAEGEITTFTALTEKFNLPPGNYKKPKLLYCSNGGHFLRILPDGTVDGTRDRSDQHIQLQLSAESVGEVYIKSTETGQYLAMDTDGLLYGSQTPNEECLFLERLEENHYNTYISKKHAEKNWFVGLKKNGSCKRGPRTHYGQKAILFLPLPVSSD

- ΔG°: -95 ± 11 kcal/mol
Substance: heparin hexasaccharide
